From patent US10188667B2, “Pharmaceutical compositions and methods of use of 4-pregenen-11β-17-21-triol-3,20-dione derivatives” (ALLERGAN, INC., priority 2011, dated 2019)

How the values were obtained:
GAL4(DBD)-MR(LBD) = GAL4(DBD)-MR(LBD) (Homo sapiens (Human), UniProt P08235); test: Mineralocorticoid receptor transactivation, UAS-bla HEK 293T CELLSENSOR reporter assay, agonist mode; format: cell-based; conditions: for % Activation at 100 nM: control compound aldosterone; for EC50: 16 hours incubation, maximum concentration 100 nM, read-out: EC50 (nM) MR (Table 4: mineralocorticoid receptor potency)
Chain of GAL4(DBD)-MR(LBD) (P08235 726-964): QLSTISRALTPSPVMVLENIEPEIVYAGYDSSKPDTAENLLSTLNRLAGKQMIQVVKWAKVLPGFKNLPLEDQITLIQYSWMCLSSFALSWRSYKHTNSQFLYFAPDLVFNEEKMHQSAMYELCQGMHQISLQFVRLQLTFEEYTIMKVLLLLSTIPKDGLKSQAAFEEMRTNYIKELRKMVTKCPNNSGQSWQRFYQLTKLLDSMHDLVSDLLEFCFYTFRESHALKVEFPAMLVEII
Protocol: Mineralocorticoid receptor (MR) activation potency was assessed using a HEK 293T cell line containing the UAS-bla reporter (UAS-bla HEK 293T CELLSENSOR®). This cell line was stably cotransfected with an expression construct containing β-lactamase cDNA under control of the GAL4 Upstream Activator Sequence (UAS) and another expression construct encoding for the fusion protein GAL4(DBD)-MR(LBD). […] All assays were performed as 10-point dose responses using a half log-fold dilution series starting with a maximum compound concentration of 100 nM. The compounds were incubated for 16 hours. The activation of the fusion protein GAL4(DBD)-MR(LBD) leads to expression of the reporter β-lactamase which is detected by the conversion of a FRET substrate in a ratiometric assay format. This functional assay allows for measurement of receptor agonism by compounds and can be used to determine compound potency and selectivity. Assay reproducibility was determined by calculating Z′ values for untreated versus maximum stimulation. The Z′ value was greater than 0.6, indicating good reproducibility of the assay format.

[1] = molecular target: Glucocorticoid receptor (GR) (Homo sapiens (Human), UniProt P04150); test: Glucocorticoid receptor transactivation, MMTV-bla HeLa CELLSENSOR reporter assay, agonist mode; format: cell-based; conditions: for % Activation at 100 nM: control compound dexamethasone; for EC50: 5 hours incubation, maximum concentration 100 nM
Chain of Glucocorticoid receptor (GR) (P04150 whole entry): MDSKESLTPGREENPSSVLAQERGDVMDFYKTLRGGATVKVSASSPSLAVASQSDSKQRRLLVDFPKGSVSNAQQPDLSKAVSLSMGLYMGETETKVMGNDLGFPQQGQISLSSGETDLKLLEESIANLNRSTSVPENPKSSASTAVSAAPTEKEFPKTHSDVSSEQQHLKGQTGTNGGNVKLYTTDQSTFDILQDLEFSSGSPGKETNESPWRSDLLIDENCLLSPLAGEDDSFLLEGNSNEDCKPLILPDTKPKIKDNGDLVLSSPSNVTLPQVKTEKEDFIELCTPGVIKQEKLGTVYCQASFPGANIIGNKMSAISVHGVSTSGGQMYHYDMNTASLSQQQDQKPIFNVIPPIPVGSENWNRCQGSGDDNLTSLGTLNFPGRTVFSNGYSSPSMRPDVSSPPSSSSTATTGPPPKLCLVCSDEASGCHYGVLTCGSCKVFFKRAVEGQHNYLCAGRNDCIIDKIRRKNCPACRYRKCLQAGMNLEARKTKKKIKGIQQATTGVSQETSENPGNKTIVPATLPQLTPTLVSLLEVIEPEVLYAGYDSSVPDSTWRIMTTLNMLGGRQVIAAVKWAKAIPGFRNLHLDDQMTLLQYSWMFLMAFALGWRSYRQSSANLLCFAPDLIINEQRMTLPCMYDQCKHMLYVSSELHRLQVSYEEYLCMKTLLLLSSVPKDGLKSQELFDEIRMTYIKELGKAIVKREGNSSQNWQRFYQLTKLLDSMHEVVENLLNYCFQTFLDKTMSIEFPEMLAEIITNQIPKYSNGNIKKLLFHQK

[2] = patients; eye drops; compared to synthetic GCs such as dexamethasone, prednisolone, fluorometholone; cited from earlier work

Question: For `C[C@]12CCC(=O)C=C1CC[C@@H]1[C@@H]2[C@@H](O)C[C@@]2(C)[C@H]1CC[C@]2(O)C(=O)CO` [drawing 23], which “% Activation at 100 nM” value (GAL4(DBD)-MR(LBD)) is on record?
Answer: 75%

Question: And the EC50 (GAL4(DBD)-MR(LBD))?
Answer: 2.9 nM

Question: With `CCCCCCC(=O)O[C@]1(C(=O)CO)CC[C@H]2[C@@H]3CCC4=CC(=O)CC[C@]4(C)[C@H]3[C@@H](O)C[C@@]21C` [drawing 26] as the compound, how does the “% Activation at 100 nM” value (GAL4(DBD)-MR(LBD)) read?
Answer: 72%

Question: What about the EC50 (GAL4(DBD)-MR(LBD)) of the same compound?
Answer: 5.27 nM

Question: With `CCCCCC(=O)O[C@]1(C(=O)CO)CC[C@H]2[C@@H]3CCC4=CC(=O)CC[C@]4(C)[C@H]3[C@@H](O)C[C@@]21C` [drawing 14] as the compound, how does the “% Activation at 100 nM” value [1] read?
Answer: 65%

Question: What about the EC50 [1] of the same compound?
Answer: 3.25 nM

Question: Which “% Activation at 100 nM” value (GAL4(DBD)-MR(LBD)) does the source give for `CCCCCCC(=O)O[C@]1(C(=O)CO)CC[C@H]2[C@@H]3CCC4=CC(=O)CC[C@]4(C)[C@H]3[C@@H](O)C[C@@]21C` [drawing 29] here?
Answer: 56%

Question: And the EC50 (GAL4(DBD)-MR(LBD))?
Answer: 9.29 nM

Question: With `CCCC(=O)O[C@]1(C(=O)CO)CC[C@H]2[C@@H]3CCC4=CC(=O)CC[C@]4(C)[C@H]3[C@@H](O)C[C@@]21C` [drawing 13] as the compound, how does the “% Activation at 100 nM” value [1] read?
Answer: 86%

Question: And the EC50 [1]?
Answer: 1.97 nM

Question: With `CCC(=O)O[C@]1(C(=O)CO)CC[C@H]2[C@@H]3CCC4=CC(=O)CC[C@]4(C)[C@H]3[C@@H](O)C[C@@]21C` [drawing 25] as the compound, how does the “% Activation at 100 nM” value (GAL4(DBD)-MR(LBD)) read?
Answer: 76%

Question: And the EC50 (GAL4(DBD)-MR(LBD))?
Answer: 3.17 nM

Question: What does the source list for `CCCC(=O)O[C@]1(C(=O)CO)CC[C@H]2[C@@H]3CCC4=CC(=O)CC[C@]4(C)[C@H]3[C@@H](O)C[C@@]21C` [drawing 24]?
Answer: % Activation at 100 nM (GAL4(DBD)-MR(LBD)): 77%; EC50 (GAL4(DBD)-MR(LBD)): 2.94 nM

Question: For `CCC(=O)O[C@]1(C(=O)CO)CC[C@H]2[C@@H]3CCC4=CC(=O)CC[C@]4(C)[C@H]3[C@@H](O)C[C@@]21C` [drawing 16], which “% Activation at 100 nM” value [1] is on record?
Answer: 85%

Question: And the EC50 [1]?
Answer: 6.31 nM

Question: With `C[C@]12CCC(=O)C=C1CC[C@@H]1[C@@H]2[C@@H](O)C[C@@]2(C)[C@H]1CC[C@]2(OC(=O)Cc1ccccc1)C(=O)CO` [drawing 20] as the compound, how does the “% Activation at 100 nM” value [1] read?
Answer: 5%

Question: What about the EC50 [1] of the same compound?
Answer: > 100 nM

Question: For `CCCCCCC(=O)O[C@]1(C(=O)CO)CC[C@H]2[C@@H]3CCC4=CC(=O)CC[C@]4(C)[C@H]3[C@@H](O)C[C@@]21C` [drawing 19], which “% Activation at 100 nM” value [1] is on record?
Answer: 15%

Question: What about the EC50 [1] of the same compound?
Answer: > 100 nM

Question: For `C[C@]12CCC(=O)C=C1CC[C@@H]1[C@@H]2[C@@H](O)C[C@@]2(C)[C@H]1CC[C@]2(O)C(=O)CO` [drawing 18], which “% Activation at 100 nM” value [1] is on record?
Answer: 43%

Question: What does the source list for `C[C@]12CCC(=O)C=C1CC[C@@H]1[C@@H]2[C@@H](O)C[C@@]2(C)[C@H]1CC[C@]2(OC(=O)C1CCCC1)C(=O)CO` [drawing 11]?
Answer: % Activation at 100 nM [1]: 88%; EC50 [1]: 1.35 nM

Question: What does the source list for `CC(C)C(=O)O[C@]1(C(=O)CO)CC[C@H]2[C@@H]3CCC4=CC(=O)CC[C@]4(C)[C@H]3[C@@H](O)C[C@@]21C` [drawing 17]?
Answer: % Activation at 100 nM [1]: 84%; EC50 [1]: 7.07 nM

Question: What does the source list for `C[C@]12CCC(=O)C=C1CC[C@@H]1[C@@H]2[C@@H](O)C[C@@]2(C)[C@H]1CC[C@]2(OC(=O)c1ccccc1)C(=O)CO` [drawing 28]?
Answer: % Activation at 100 nM (GAL4(DBD)-MR(LBD)): 62%; EC50 (GAL4(DBD)-MR(LBD)): 7.46 nM

Question: For `C[C@]12CCC(=O)C=C1CC[C@@H]1[C@@H]2[C@@H](O)C[C@@]2(C)[C@H]1CC[C@]2(OC(=O)C1CCCC1)C(=O)CO` [drawing 31], which “% Activation at 100 nM” value (GAL4(DBD)-MR(LBD)) is on record?
Answer: 27%

Question: What about the EC50 (GAL4(DBD)-MR(LBD)) of the same compound?
Answer: > 100 nM

Question: Which results are given for `CCCCCCC(=O)O[C@]1(C(=O)CO)CC[C@H]2[C@@H]3CCC4=CC(=O)CC[C@]4(C)[C@H]3[C@@H](O)C[C@@]21C` [drawing 15]?
Answer: % Activation at 100 nM [1]: 47%; EC50 [1]: 6.04 nM

Question: With `CC(C)C(=O)O[C@]1(C(=O)CO)CC[C@H]2[C@@H]3CCC4=CC(=O)CC[C@]4(C)[C@H]3[C@@H](O)C[C@@]21C` [drawing 30] as the compound, how does the “% Activation at 100 nM” value (GAL4(DBD)-MR(LBD)) read?
Answer: 62%

Question: And the EC50 (GAL4(DBD)-MR(LBD))?
Answer: 15.6 nM

Question: With `C[C@]12CCC(=O)C=C1CC[C@@H]1[C@@H]2[C@@H](O)C[C@@]2(C)[C@H]1CC[C@]2(OC(=O)Cc1ccccc1)C(=O)CO` [drawing 22] as the compound, how does the “% Activation at 100 nM” value (GAL4(DBD)-MR(LBD)) read?
Answer: 81%

Question: What about the EC50 (GAL4(DBD)-MR(LBD)) of the same compound?
Answer: 2.85 nM

Question: With `C[C@]12CCC(=O)C=C1CC[C@@H]1[C@@H]2[C@@H](O)C[C@@]2(C)[C@H]1CC[C@]2(OC(=O)c1ccccc1)C(=O)CO` [drawing 12] as the compound, how does the “% Activation at 100 nM” value [1] read?
Answer: 85%

Question: What about the EC50 [1] of the same compound?
Answer: 1.41 nM

Question: With `CCCCCC(=O)O[C@]1(C(=O)CO)CC[C@H]2[C@@H]3CCC4=CC(=O)CC[C@]4(C)[C@H]3[C@@H](O)C[C@@]21C` [drawing 27] as the compound, how does the “% Activation at 100 nM” value (GAL4(DBD)-MR(LBD)) read?
Answer: 64%

Question: What about the EC50 (GAL4(DBD)-MR(LBD)) of the same compound?
Answer: 5.68 nM

Question: With `C[C@]12CCC(=O)C=C1CC[C@@H]1[C@@H]2[C@@H](O)C[C@@]2(C)[C@H]1CC[C@]2(O)C(=O)CO` [cortisol] as the compound, how does the “effect on intraocular pressure” value [2] read?
Answer: minimal effect on intraocular pressure
